Source: ChEMBL document CHEMBL3885881, “DrugMatrix”

Species on record: Rattus norvegicus
Assay: DrugMatrix - Regimen: Daily Repeat
Assay type: toxicity, organism-based, Sprague-Dawley
Set-up: regimen Daily Repeat, gender Male, age 6-8 weeks
Settings: in vivo, po, route oral GAVAGE, […]; for ABSOLUTE BASOPHIL / ABSOLUTE EOSINOPHIL / ABSOLUTE LYMPHOCYTE / ABSOLUTE MONOCYTE / ABSOLUTE SEGMENTED NEUTROPHIL / BASOPHIL / EOSINOPHIL / ERYTHROCYTE COUNT / HEMATOCRIT / HEMOGLOBIN / LEUKOCYTE COUNT / LYMPHOCYTE / MEAN CORPUSCULAR HEMOGLOBIN / MEAN CORPUSCULAR HEMOGLOBIN CONCENTRATION / MEAN CORPUSCULAR VOLUME / MONOCYTE / NEUTROPHIL / NUCLEATED RED BLOOD CELLS / PLATELET COUNT: tissue Blood; for ALANINE AMINOTRANSFERASE / ALBUMIN / ALKALINE PHOSPHATASE / ASPARTATE AMINOTRANSFERASE / BLOOD UREA NITROGEN / CARBON DIOXIDE / CHLORIDE / CHOLESTEROL / CREATINE PHOSPHOKINASE / CREATININE / GLUCOSE / LACTATE DEHYDROGENASE / LIPASE / PHOSPHORUS / POTASSIUM / SODIUM / TOTAL BILIRUBIN / TOTAL PROTEIN / URIC ACID: tissue Plasma
[1] = 0 mg/kg, 72 h, dose level Control, time 3 day
[2] = 0 mg/kg, 120 h, dose level Control, time 5 day
[3] = 25 mg/kg, 72 h, dose level Low, time 3 day

CC(C)(C)NC(=O)[C@H]1CC[C@H]2[C@@H]3CC[C@H]4NC(=O)C=C[C@]4(C)[C@H]3CC[C@]12C [FINASTERIDE]
ABSOLUTE BASOPHIL [1]: 0 CELLS/uL
ABSOLUTE EOSINOPHIL [1]: 52.33 CELLS/uL
ABSOLUTE LYMPHOCYTE [1]: 9105.33 CELLS/uL
ABSOLUTE MONOCYTE [1]: 155.67 CELLS/uL
ABSOLUTE SEGMENTED NEUTROPHIL [1]: 1020 CELLS/uL
BASOPHIL [1]: 0%
EOSINOPHIL [1]: 0.33%
ERYTHROCYTE COUNT [1]: 5.03 x10E6/uL
HEMATOCRIT [1]: 31.63%
HEMOGLOBIN [1]: 12.37 G/DL
LEUKOCYTE COUNT [1]: 10.33 x10E3/uL
LYMPHOCYTE [1]: 87%
MEAN CORPUSCULAR HEMOGLOBIN [1]: 24.57 pg
MEAN CORPUSCULAR HEMOGLOBIN CONCENTRATION [1]: 39.07 G/DL
MEAN CORPUSCULAR VOLUME [1]: 62.93 fL
MONOCYTE [1]: 1.33%
NEUTROPHIL [1]: 11.33%
NUCLEATED RED BLOOD CELLS [1]: 0 /100WBC
PLATELET COUNT [1]: 896 x10E3/uL
ALANINE AMINOTRANSFERASE [1]: 75.33 u/L
ALBUMIN [1]: 3.77 G/DL
ALKALINE PHOSPHATASE [1]: 378.67 u/L
ASPARTATE AMINOTRANSFERASE [1]: 101.33 u/L
BLOOD UREA NITROGEN [1]: 11.33 mg/dL
CARBON DIOXIDE [1]: 25 mmol/L
CHLORIDE [1]: 99 MEQ/L
CHOLESTEROL [1]: 66 mg/dL
CREATINE PHOSPHOKINASE [1]: 277 u/L
CREATININE [1]: 0.33 mg/dL
GLUCOSE [1]: 198.33 mg/dL
LACTATE DEHYDROGENASE [1]: 140.33 u/L
LIPASE [1]: 11.33 u/L
PHOSPHORUS [1]: 11.83 mg/dL
POTASSIUM [1]: 5.37 MEQ/L
SODIUM [1]: 141.03 MEQ/L
TOTAL BILIRUBIN [1]: 0.2 mg/dL
TOTAL PROTEIN [1]: 5.47 G/DL
URIC ACID [1]: 0.93 mg/dL
ABSOLUTE BASOPHIL [2]: 0 CELLS/uL
ABSOLUTE EOSINOPHIL [2]: 0 CELLS/uL
ABSOLUTE LYMPHOCYTE [2]: 8734 CELLS/uL
ABSOLUTE MONOCYTE [2]: 98.67 CELLS/uL
ABSOLUTE SEGMENTED NEUTROPHIL [2]: 1034 CELLS/uL
BASOPHIL [2]: 0%
EOSINOPHIL [2]: 0%
ERYTHROCYTE COUNT [2]: 5.19 x10E6/uL
HEMATOCRIT [2]: 33.2%
HEMOGLOBIN [2]: 12.93 G/DL
LEUKOCYTE COUNT [2]: 9.87 x10E3/uL
LYMPHOCYTE [2]: 87%
MEAN CORPUSCULAR HEMOGLOBIN [2]: 25 pg
MEAN CORPUSCULAR HEMOGLOBIN CONCENTRATION [2]: 39.03 G/DL
MEAN CORPUSCULAR VOLUME [2]: 63.93 fL
MONOCYTE [2]: 1%
NEUTROPHIL [2]: 12%
NUCLEATED RED BLOOD CELLS [2]: 0 /100WBC
PLATELET COUNT [2]: 1190 x10E3/uL
ALANINE AMINOTRANSFERASE [2]: 75.67 u/L
ALBUMIN [2]: 4 G/DL
ALKALINE PHOSPHATASE [2]: 384.33 u/L
ASPARTATE AMINOTRANSFERASE [2]: 89.67 u/L
BLOOD UREA NITROGEN [2]: 13 mg/dL
CARBON DIOXIDE [2]: 32.67 mmol/L
CHLORIDE [2]: 103 MEQ/L
CHOLESTEROL [2]: 79.67 mg/dL
CREATINE PHOSPHOKINASE [2]: 199.33 u/L
CREATININE [2]: 0.29 mg/dL
GLUCOSE [2]: 161.33 mg/dL
LACTATE DEHYDROGENASE [2]: 92.33 u/L
LIPASE [2]: 11.67 u/L
PHOSPHORUS [2]: 10.8 mg/dL
POTASSIUM [2]: 5.38 MEQ/L
SODIUM [2]: 145.3 MEQ/L
TOTAL BILIRUBIN [2]: 0.17 mg/dL
TOTAL PROTEIN [2]: 5.7 G/DL
URIC ACID [2]: 0.63 mg/dL
ABSOLUTE BASOPHIL [3]: 0 CELLS/uL
ABSOLUTE EOSINOPHIL [3]: 0 CELLS/uL
ABSOLUTE LYMPHOCYTE [3]: 6334 CELLS/uL
ABSOLUTE MONOCYTE [3]: 74.67 CELLS/uL
ABSOLUTE SEGMENTED NEUTROPHIL [3]: 624.67 CELLS/uL
BASOPHIL [3]: 0%
EOSINOPHIL [3]: 0%
ERYTHROCYTE COUNT [3]: 5.31 x10E6/uL
HEMATOCRIT [3]: 33.17%
HEMOGLOBIN [3]: 12.87 G/DL
LEUKOCYTE COUNT [3]: 7.03 x10E3/uL
LYMPHOCYTE [3]: 89.67%
MEAN CORPUSCULAR HEMOGLOBIN [3]: 24.23 pg
MEAN CORPUSCULAR HEMOGLOBIN CONCENTRATION [3]: 38.8 G/DL
MEAN CORPUSCULAR VOLUME [3]: 62.43 fL
MONOCYTE [3]: 1%
NEUTROPHIL [3]: 9.33%
NUCLEATED RED BLOOD CELLS [3]: 0 /100WBC
PLATELET COUNT [3]: 1308 x10E3/uL
ALANINE AMINOTRANSFERASE [3]: 57.33 u/L
ALBUMIN [3]: 3.9 G/DL
ALKALINE PHOSPHATASE [3]: 360 u/L
ASPARTATE AMINOTRANSFERASE [3]: 80.67 u/L
BLOOD UREA NITROGEN [3]: 11 mg/dL
CARBON DIOXIDE [3]: 26.33 mmol/L
CHLORIDE [3]: 101.33 MEQ/L
CHOLESTEROL [3]: 77 mg/dL
CREATINE PHOSPHOKINASE [3]: 434.67 u/L
CREATININE [3]: 0.12 mg/dL
GLUCOSE [3]: 184.33 mg/dL
LACTATE DEHYDROGENASE [3]: 112 u/L
LIPASE [3]: 10.67 u/L
PHOSPHORUS [3]: 12.1 mg/dL
POTASSIUM [3]: 4.86 MEQ/L
SODIUM [3]: 144.9 MEQ/L
TOTAL BILIRUBIN [3]: 0.2 mg/dL
TOTAL PROTEIN [3]: 5.83 G/DL
URIC ACID [3]: 0.87 mg/dL
